Measured values from patent US20210106679A1, “Silaffin Silica Particle Adjuvant” (UNIVERSITÄT WIEN, priority 2017, published 2021).
Entries after “also recorded” stand apart in the source; their conditions may differ. *1 amine or outer side, *2 acyl side, *3 side chain or, on linkers, in order; H or OH if unused. Where no end group is shown, it is not given here. [ ]: non-standard residue; d: D form. εLys = N[C@@H](CCCCN[*:1])C(=O)[*:2]

What was measured:
[1] = from a solution of silicic acid; cited from earlier work
[2] = Circular dichroism of peptide solutions; type: physicochemical; conditions: for CD spectrum profile: 0.8 mM in 50 mM phosphate buffer pH 7, after 24 h incubation
Protocol: CD spectra were recorded on peptide solutions at 0.8 mM (by weight) in 50 mM phosphate buffer at pH 7. Solutions had been incubated at room temperature for a minimum of 24 h. Scans were performed in 1 nm increments with 3 s scans at 20° C. and averaged over 5 scans.
The CD spectrum of peptide 1 in the A range of 200-250 nm was fitted by use of the novel Beta Structure Selection algorithm with normalized root mean square deviation of 0.018 (A. Micsonai, F. Wien, L. Kernya, Y.-H. Lee, Y. Goto, M. Réfrégiers and J. Kardos, Proc. Natl. Acad. Sci., 2015, 112, E3095-E3103). The algorithm predicts that the secondary or tertiary structure of the peptide consists of approximately 56% random coils, 27% beta-sheets and 17% beta-turns.

[3] = TEM imaging of peptides and peptide-silica mixtures; type: physicochemical; conditions: phosphate buffer, absence of silicic acid
Protocol: Peptide and peptide-silica mixtures suspended in 50 mM phosphate buffer were applied onto carbon coated copper grid and subsequently viewed with Philips CM200 electron microscope operated at 200 kV.

[4] = Silica precipitation (mineralisation) by peptides; conditions: silicic acid 25 mM, peptide 0.5 mg/mL, 50 mM phosphate buffer pH 7, RT
Protocol: The individual members of the peptide library were subjected to silica mineralisation conditions analogous to those used for the R5 peptide (C. C. Lechner and C. F. W. Becker, Chem. Sci., 2012, 3, 3500). Phosphate buffered solution at pH 7 was used as a background for the reaction, and peptides were individually incubated in this buffer for 24 h prior to silica precipitation. White precipitate was observable in all samples within the first five minutes following addition of the silicic acid.
Peptides were dissolved to a final concentration of 0.5 mg/mL in 50 mM potassium phosphate buffer at pH 7.0 and left standing at room temperature overnight. Silicic acid was generated by hydrolysis of 250 mM tetramethoxysilane in 1 mM aqueous HCl for 4 min. Silica precipitation reactions were initiated by addition of silicic acid to peptide solutions to a final concentration of 25 mM. Reactions were incubated at RT for 30 min. Silica precipitates were collected by centrifugation (5 min, 16.873×g) and washed twice with water. […] All precipitations were carried out in triplicates.

[5] = CD 200-250 nm fitted with Beta Structure Selection algorithm

## KRRIL (truncated silaffin peptide I)
[1]
  silica precipitation and morphology: precipitate silica with a random morphology

## RRIIL(εK)RRIL (RRIIL[εLys]RRIL-OH; also: Lys6 bound via its epsilon amine to the preceding Leu (branched)) [Peptide 9]
[2]
  CD spectrum profile: profile was similar to that of peptides 1

## RRILKRRIL [Peptide 1]
[2]
  CD spectrum profile: random coil conformation
[2]; [5]
  secondary structure: beta-sheets: ~27%
  secondary structure: beta-turns: ~17%
  secondary structure: random coils: approximately 56%

## SSKKSGSYSGSKGSKRRIL [Peptide R5]
[1]
  silica precipitation and morphology: highly efficient in precipitating monodisperse silica particles

## rriIKRRIL [Peptide 5]
[2]
  CD spectrum profile: significantly lower magnitudes than those for peptides 1-4

## rriil(εK)RRIL [Peptide 8]
[2]
  CD spectrum profile: significantly lower magnitudes than those for peptides 1-4; also recorded: the minimum at 200 nm disappeared and the curve gained a positive character
[3]
  diameter of peptide rods or narrow sheets (TEM): 80-200 nm

## rriil(εK)RRLL [Peptide 66]
[4]
  capacity to precipitate silica: still able to precipitate silica

## rril(εK)RRIIL [Peptide 7]
[2]
  CD spectrum profile: significantly lower magnitudes than those for peptides 1-4

## rril(εK)RRIL [Peptide 6]
[2]
  CD spectrum profile: significantly lower magnitudes than those for peptides 1-4

## rrilkrril [Peptide 2]
[2]
  CD spectrum profile: mirror image of the spectrum of peptide 1
